# In patent US20070197593A1, “HYDROXYLAMINES AND DERIVATIVES FOR TREATMENT OF INFLAMMATORY CONDITIONS OF THE LIVER” (priority 2006, published 2007):
# Experiments:
# Sprague Dawley rats = assay: 28-day intravenous toxicity study in rats, liver histopathology (subacute hepatitis); format: in vivo
# Experimental: Potential toxicity of Compound 1-HCl was evaluated by intravenous administration to Sprague Dawley rats for 28 days. This study was conducted in compliance with FDA Good Laboratory Practice Standards, 21 CFR 58 and in accordance with OECD Principles of Good Laboratory Practice.
# One hundred twelve Sprague Dawley—HsD: SD rats were randomly divided into eight groups and treated with Compound 1 (“test article”) or vehicle, by intravenous administration via the lateral tail vein (slow bolus) (Table 1).
# Animals in Groups 1-4 were subjected to a complete necropsy examination. Protocol-specified necropsy procedures included the recording of organ weights (adrenals, brain, hearts, kidneys, liver, testes, ovaries, spleen, thyroids, parathyroids), examination of the external body surface, examination of all orifices, and examination of the cranial, thoracic, and abdominal cavities and their contents. Post-fixation weights for the thyroids/parathyroids were recorded. The following protocol-specified tissues were collected at necropsy: animal identification (not evaluated), abnormalities (gross findings), adrenals, aorta, brain, cecum, cervix, colon, duodenum, epidiymides, esophagus, eye with optic nerve, femur with articular surface, heart, ileum, injection site, jejunum, kidneys, lacrimal glands (exorbital), larynx, liver, lung with mainstem bronchus, mammary gland, mandibular lymph nodes, mesenteric lymph nodes, ovaries, pancreas, pituitary, prostate, rectum, salivary glands, sciatic nerve, seminal vesicles, skeletal muscle (thigh), skin, spinal cord (cervical, midthoracis, lumbar), spleen, sternum with bone marrow, stomach, testes, thymus, thyroid/parathyroid, tongue, trachea, urinary bladder, uterus, and vagina.
# On day 29, animals were weighed and sacrificed by CO2 inhalation. Protocol-specific tissues were preserved in 10% neutral buffered formalin (NBF). Protocol-requires tissues were embedded in paraffin, sectioned at approximately 5 microns, and processed to slides stained with hematoxylin and eosin (H&E). Histopathological evaluation was performed by a veterinary pathologist on all rats in Group 1 and Group 4 sacrificed on day 29, as well as for all early deaths. Livers for animals in Groups 2 and 3 were evaluated microscopically.
# [1] = test system: LPS induced TNF-alpha in monocytes; assay: LPS induced TNF-alpha in monocytes (TNF alpha assay); format: cell-based; settings: Monocyte; compound 10 uM; 5 ng/mL LPS; read-out: Mean Percent Inhibition of TNF-alpha using 5 ng/mL LPS
# Experimental: This test is a standard methodology for assessing the anti-inflammatory activity of compounds. Table 1 provides Percent Inhibition of LPS induced TNF-alpha in monocytes data for 18 hydroxylamine compounds of the invention. Compounds at different concentrations (0, 1, 2.5 and 10 uM) were incubated with 100 ul freshly collected heparinized blood for 10 minutes. […] Following incubation with LPS, PBS was added (800 uL) and samples were spun for 10 minutes at 1500 g. TNFα protein concentrations were measured using R&D Systems high sensitivity ELISA kit. THP-1 cells (0.5×10^6 cells/mL) were incubated with the compounds (0, 1, 2.5 and 10 uM) for 3 hrs in humidified chamber, 37° C., 5% CO2, 2% FBS in RPMI medium. Cells were induced with 25 ng/mL LPS for another 3 hrs. Cells were collected and spun at 1500 g for 10 minutes. Supernatant was collected and analyzed for TNFα.
smiles,measurement,setting,value
"CC1(C)CC(OC(=O)C2CC2)CC(C)(C)N1O.Cl [Compound 1, 1-Hydroxy-4-cyclopropanecarbonyloxy-2,2,6,6-tetramethylpiperidine hydrochloride]","Subacute hepatic inflammation (hepatitis) incidence, number of rats with minimal subacute hepatitis","Sprague Dawley rats; Group 2, 1.0 mg/kg/day i.v. 28 days, female rats (8 per group), vehicle Group 1 females 6/8",one
same,Subacute hepatic inflammation (hepatitis) incidence,"Sprague Dawley rats; Group 2, 1.0 mg/kg/day i.v. 28 days, male rats (8 per group), vehicle Group 1 males 8/8",not present in any
same,Subacute hepatic inflammation (hepatitis) incidence,"Sprague Dawley rats; Group 3, 2.5 mg/kg/day i.v. 28 days, female rats (8 per group), vehicle Group 1 females 6/8",not present in any
same,"Subacute hepatic inflammation (hepatitis) incidence, number of rats with minimal subacute hepatitis","Sprague Dawley rats; Group 3, 2.5 mg/kg/day i.v. 28 days, male rats (8 per group), vehicle Group 1 males 8/8",one
same,Subacute hepatic inflammation (hepatitis) incidence,"Sprague Dawley rats; Group 4, 7.5 mg/kg/day i.v. 28 days, female rats (8 per group), vehicle Group 1 females 6/8",not present in any
same,Subacute hepatic inflammation (hepatitis) incidence,"Sprague Dawley rats; Group 4, 7.5 mg/kg/day i.v. 28 days, male rats (8 per group), vehicle Group 1 males 8/8",not present in any
same,Effect on background liver inflammation (idiopathic lesion) in treated rats,"Sprague Dawley rats; Groups 2-4 (1.0-7.5 mg/kg/day i.v. 28 days), male and female rats",reduction in the incidence of this idiopathic lesion
same,inhibition at 10 µM,[1],68 ± 6%
